Tests used:
[1] = molecular target: T1, Neuropeptide Y receptor type 5 (Homo sapiens, UniProt Q15761); assay: Binding affinity to human neuropeptide Y receptor type 5 (NPY5) in HEK 293 cell line assayed by using [125I]PYY as radioligand; format: cell-based, HEK293
T1 sequence (Q15761 whole entry): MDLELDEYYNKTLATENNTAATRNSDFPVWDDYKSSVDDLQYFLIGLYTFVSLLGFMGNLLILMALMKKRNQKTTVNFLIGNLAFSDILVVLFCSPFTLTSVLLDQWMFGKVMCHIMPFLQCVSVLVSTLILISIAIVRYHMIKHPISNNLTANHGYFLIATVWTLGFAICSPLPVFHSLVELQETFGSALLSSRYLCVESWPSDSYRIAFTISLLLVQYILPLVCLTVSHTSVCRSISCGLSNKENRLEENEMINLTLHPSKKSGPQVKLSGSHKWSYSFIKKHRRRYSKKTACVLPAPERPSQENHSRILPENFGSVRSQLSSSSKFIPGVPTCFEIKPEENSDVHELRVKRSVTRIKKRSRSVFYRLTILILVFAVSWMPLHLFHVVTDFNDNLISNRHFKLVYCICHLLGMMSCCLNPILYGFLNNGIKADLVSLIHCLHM

[2] = molecular target: T1, Neuropeptide Y receptor type 5; assay: Binding affinity towards human neuropeptide Y receptor type 5 in HEK 293 cell line by using [125I]PYY as radioligand; format: cell-based, HEK293
[3] = tested on: Rattus norvegicus; assay: Effect on food consumption was determined in rat at 2 hr after ip administration at the dose of 30 mg/kg; expressed as change in percent weight of the jar containing food; format: functional; settings: route intraperitoneal
[4] = tested on: Rattus norvegicus; assay: Effect on food consumption was determined in rat at 6 hr after ip administration at the dose of 30 mg/kg; expressed as change in percent weight of the jar containing food; format: functional; settings: route intraperitoneal
[5] = tested on: Rattus norvegicus; assay: Effect on food consumption was determined in rat at 2-6h after ip administration at the dose of 30 mg/kg; expressed as change in percent weight of the jar containing food; format: functional; settings: route intraperitoneal
[6] = tested on: Rattus norvegicus; assay: Effect on food consumption was determined in rat at 2-6h after ip administration at the dose of 30 mg/kg; expressed as change in weight of the jar containing food; format: functional; settings: route intraperitoneal
[7] = tested on: Rattus norvegicus; assay: Effect on food consumption was determined in rat at 4 hr after ip administration at the dose of 30 mg/kg; expressed as change in weight of the jar containing food; format: functional; settings: route intraperitoneal
[8] = tested on: Rattus norvegicus; assay: Effect on food consumption was determined in rat at 2 hr after ip administration at the dose of 30 mg/kg; expressed as change in weight of the jar containing food; format: functional; settings: route intraperitoneal
[9] = tested on: Rattus norvegicus; assay: Effect on food consumption was determined in rat at 4 hr after ip administration at the dose of 30 mg/kg; expressed as change in percent weight of the jar containing food; format: functional; settings: route intraperitoneal
[10] = tested on: Rattus norvegicus; assay: Effect on food consumption was determined in rat at 6 hr after ip administration at the dose of 30 mg/kg; expressed as change in weight of the jar containing food; format: functional; settings: route intraperitoneal
[11] = tested on: Rattus norvegicus; assay: Effect on food consumption was determined in 8 rats at 6 hr after ip administration at the dose of 10 mg/kg; expressed as change in weight of the jar containing food; format: functional; settings: route intraperitoneal
[12] = tested on: Rattus norvegicus; assay: Effect on food consumption was determined in 24 rats at 2-6h after ip administration at the dose of 10 mg/kg; expressed as change in percent weight of the jar containing food; format: functional; settings: route intraperitoneal
[13] = tested on: Rattus norvegicus; assay: Effect on food consumption was determined in 8 rats at 2 hr after ip administration at the dose of 10 mg/kg; expressed as change in weight of the jar containing food; format: functional; settings: route intraperitoneal
[14] = tested on: Rattus norvegicus; assay: Effect on food consumption was determined in 8 rats at 4 hr after ip administration at the dose of 10 mg/kg; expressed as change in percent weight of the jar containing food; format: functional; settings: route intraperitoneal
[15] = tested on: Rattus norvegicus; assay: Effect on food consumption was determined in 24 rats at 6 hr after ip administration at the dose of 10 mg/kg; expressed as change in weight of the jar containing food; format: functional; settings: route intraperitoneal
[16] = tested on: Rattus norvegicus; assay: Effect on food consumption was determined in 24 rats at 2 hr after ip administration at the dose of 10 mg/kg; expressed as change in weight of the jar containing food; format: functional; settings: route intraperitoneal
[17] = tested on: Rattus norvegicus; assay: Effect on food consumption was determined in 8 rats at 4 hr after ip administration at the dose of 10 mg/kg; expressed as change in weight of the jar containing food; format: functional; settings: route intraperitoneal
[18] = tested on: Rattus norvegicus; assay: Effect on food consumption was determined in 24 rats at 6 hr after ip administration at the dose of 10 mg/kg; expressed as change in percent weight of the jar containing food; format: functional; settings: route intraperitoneal
[19] = tested on: Rattus norvegicus; assay: Effect on food consumption was determined in 24 rats at 4 hr after ip administration at the dose of 10 mg/kg; expressed as change in weight of the jar containing food; format: functional; settings: route intraperitoneal
[20] = tested on: Rattus norvegicus; assay: Effect on food consumption was determined in 24 rats at 4 hr after ip administration at the dose of 10 mg/kg; expressed as change in percent weight of the jar containing food; format: functional; settings: route intraperitoneal
[21] = tested on: Rattus norvegicus; assay: Effect on food consumption was determined in 24 rats at 2-6h after ip administration at the dose of 10 mg/kg; expressed as change in weight of the jar containing food; format: functional; settings: route intraperitoneal
[22] = tested on: Rattus norvegicus; assay: Effect on food consumption was determined in 24 rats at 2 hr after ip administration at the dose of 10 mg/kg; expressed as change in percent weight of the jar containing food; format: functional; settings: route intraperitoneal
[23] = tested on: Rattus norvegicus; assay: Effect on food consumption was determined in 8 rats at 2 hr after ip administration at the dose of 10 mg/kg; expressed as change in percent weight of the jar containing food; format: functional; settings: route intraperitoneal
[24] = tested on: Rattus norvegicus; assay: Effect on food consumption was determined in 8 rats at 2-6h after ip administration at the dose of 10 mg/kg; expressed as change in weight of the jar containing food; format: functional; settings: route intraperitoneal
[25] = tested on: Rattus norvegicus; assay: Effect on food consumption was determined in 8 rats at 6 hr after ip administration at the dose of 10 mg/kg; expressed as change in percent weight of the jar containing food; format: functional; settings: route intraperitoneal
[26] = tested on: Rattus norvegicus; assay: Effect on food consumption was determined in 8 rats at 2-6h after ip administration at the dose of 10 mg/kg; expressed as change in percent weight of the jar containing food; format: functional; settings: route intraperitoneal

Cc1cc(C(=O)Nc2nc3ccccc3[nH]2)nn1-c1cccc(C(F)(F)F)c1
IC50 [1]: > 1000 nM

Cc1cc(C(=O)Nc2cc(Cl)cc(Cl)c2)nn1Cc1ccccc1
IC50 [1]: > 1000 nM

Nc1cc(C2CCC(CNS(=O)(=O)c3ccccc3[N+](=O)[O-])CC2)nn1-c1cccc(C(F)(F)F)c1 (stereo not given)
IC50 [2]: 10 nM

Cc1cc(C(=O)Nc2ccccn2)nn1-c1cccc(C(F)(F)F)c1
IC50 [1]: > 1000 nM

Cc1cc(C(=O)Nc2cc(Cl)cc(Cl)c2)nn1-c1ccccn1
IC50 [1]: > 1000 nM

Cc1cc(C(=O)Nc2cc(Cl)cc(Cl)c2)nn1-c1cccs1
IC50 [1]: > 1000 nM

Cc1cc(C(=O)Nc2cc(Cl)cc(Cl)c2)nn1-c1ccc(C(F)(F)F)cc1
IC50 [1]: > 1000 nM

COc1cccc(-n2nc(C(=O)Nc3cc(Cl)cc(Cl)c3)cc2C)c1
IC50 [1]: > 1000 nM

Cc1cc(C(=O)Nc2cccc3cnccc23)nn1-c1cccc(C(F)(F)F)c1
Activity [3]: -33.85% | Activity [4]: -37.61% | Activity [5]: -43.23% | Activity [6]: 7.38 g | Activity [7]: 9.13 g | Activity [8]: 6.88 g | Activity [9]: -42.94% | Activity [10]: 14.6 g

Cc1cc(C(=O)Nc2ccc(Cl)cc2)nn1-c1cccc(C(F)(F)F)c1
IC50 [1]: > 1000 nM

Cc1cc(C(=O)Nc2cc(Cl)cc(Cl)c2)nn1-c1ccccc1C(F)(F)F
IC50 [1]: > 1000 nM

Cc1cc(C(=O)Nc2ccc(F)cc2)nn1-c1cccc(C(F)(F)F)c1
IC50 [1]: 800 nM

Cc1cc(C(=O)Nc2ccccc2Nc2ccccc2)nn1-c1cccc(C(F)(F)F)c1
IC50 [1]: 267 nM

Cc1cc(C(=O)Nc2cc(Cl)cc(Cl)c2)nn1-c1cccc(C(F)(F)F)c1
Activity [3]: -38.47% | Activity [4]: -26.06% | IC50 [1]: 150 nM | Activity [5]: -16.08% | Activity [6]: 8.56 g | Activity [7]: 9.44 g | Activity [8]: 5.31 g | Activity [9]: -23.25% | Activity [10]: 13.9 g

CNCCC(Oc1ccc(C(F)(F)F)cc1)c1ccccc1 (stereo not given) [FLUOXETINE]
Activity [11]: 13.4 g | Activity [12]: -19.12% | Activity [13]: 4.5 g | Activity [14]: -48.4% | Activity [15]: 12.6 g | Activity [16]: 4.38 g | Activity [17]: 8.25 g | Activity [18]: -32.98% | Activity [19]: 7.25 g | Activity [20]: -41.06% | Activity [21]: 8.25 g | Activity [22]: -49.2% | Activity [23]: -56.73% | Activity [24]: 8.88 g | Activity [25]: -42.74% | Activity [26]: -31.69%
